Test results reported in paper PMC11335189, “Revealing molecular determinants governing mambalgin-3 pharmacology at acid-sensing ion channel 1 variants” (Cellular and Molecular Life Sciences: CMLS, 2024).
Like-named read-outs stand apart in the source and are kept apart here. Positions of bridges follow the written chain, without caps; N, C: chain ends. No end group written: not given here.

Key:
hASIC1b = target: T1, hASIC1b (Homo sapiens, UniProt P78348); experiment: TEVC in Xenopus laevis oocytes expressing hASIC1b; type: cell-based; details: for remaining activity at 1 µM: 1 µM peptide, conditioning pH 7.45, mean, n ≥ 5, read-out: I/Icontrol
T1 construct: expressed in transfected cells; host or cells: Xenopus laevis oocytes (cRNA injection)
T1 sequence (P78348 1-562 isoform P78348-3): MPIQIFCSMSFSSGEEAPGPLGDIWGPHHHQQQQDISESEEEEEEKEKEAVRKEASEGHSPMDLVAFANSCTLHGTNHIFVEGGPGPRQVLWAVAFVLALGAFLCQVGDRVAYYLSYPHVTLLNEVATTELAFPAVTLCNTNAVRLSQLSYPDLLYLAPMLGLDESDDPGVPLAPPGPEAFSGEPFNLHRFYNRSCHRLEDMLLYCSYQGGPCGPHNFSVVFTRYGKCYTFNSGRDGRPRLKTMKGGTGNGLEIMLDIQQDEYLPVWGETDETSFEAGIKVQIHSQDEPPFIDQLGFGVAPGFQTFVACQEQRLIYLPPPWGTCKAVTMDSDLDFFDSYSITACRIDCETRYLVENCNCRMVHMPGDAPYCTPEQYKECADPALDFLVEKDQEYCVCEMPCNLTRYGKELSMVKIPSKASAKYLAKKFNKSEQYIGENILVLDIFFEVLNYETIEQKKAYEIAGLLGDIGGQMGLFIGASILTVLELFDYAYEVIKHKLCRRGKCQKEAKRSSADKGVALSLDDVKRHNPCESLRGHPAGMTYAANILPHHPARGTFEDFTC
Protocol: (§1) Two-electrode voltage-clamp (TEVC) experiments using Xenopus laevis oocytes were conducted as previously described. Briefly, oocytes were surgically removed from anaesthetised female frogs, then treated with collagenase (~ 1 mg/ml, Sigma type I) for 2 h under agitation at room temperature. cRNAs were synthesised using a mMessage mMachine T7 or SP6 transcription kit (Thermo Fisher Scientific Australia Pty Ltd, Scoresby, VIC, Australia) and injected into healthy stage V–VI oocytes at 0.2–20 ng per cell. Different amounts of RNA were used for different wild-type and mutant constructs, as well as to titrate expression levels to record over multiple days and maintaining consistent expression levels. Injected oocytes were incubated at 17 °C for 1–7 days in 50% Leibovitz’s L-15 medium (Gibco, Thermo Fisher Scientific Australia Pty Ltd, Scoresby, VIC, Australia), supplemented with 25 µg/mL gentamicin, 25 µg/mL streptomycin, and 2.5% fetal horse serum. Membrane currents were recorded 2–7 days after cRNA-injection under voltage-clamp at -60 mV (Axon Axoclamp 900 A, Molecular Devices, CA, USA) using two standard glass microelectrodes of 0.5–1 MΩ resistance when filled with 3 M KCl solution. Data were sampled at 2 kHz and filtered at 0.1 kHz using Clampex 10 software (Molecular Devices, CA, USA). A microperfusion system was used to allow fast extracellular solution exchange (bath volume = ~ 30 µL). All experiments were performed at room temperature (18–23 °C) in ND96 (96 mM NaCl, 2 mM KCl, 1.8 mM CaCl2, 2 mM MgCl2, 5 mM HEPES, pH 7.45). In solutions below pH 6.8, HEPES was replaced by MES. All solutions containing peptides contained 0.05% fatty acid free bovine serum albumin to decrease adsorptive losses of peptide to plasticware. For all channels tested, control current magnitudes between 500 and 9000 nA when tested using a conditioning pH of 7.45 and stimulating pH of 6 (except for the chimeras that were stimulated with pH 5) were used for data collection. Before recording any experiments, oocytes were stimulated multiple times with low pH to minimise and stabilise tachyphylaxis/desensitisation, which were then accounted for during analysis. Complete recovery of currents from Ma-3 induced modulation within 3 min of washout at all channels tested allowed for correction for tachyphylaxis/desensitisation during analyses.
(§2) Specific to this work, the standard protocol was for oocytes to be conditioned at pH 7.45 and channels stimulated every 60 s using a 5 s pH 5 or 6 application, unless stated otherwise. For all concentration-response data, peptides were applied for ~ 50 s between each low pH stimulus application. Activation curves were determined by conditioning oocytes at pH 8 (Fig. 2e − g; and Fig. 5a and b) or 7.45 (Fig. 6; and Supplementary Fig. 2d and c) for 55 s and applying low pH stimuli from 7.25 to 5.0 for 5 s. Steady-state desensitisation (SSD) was determined by applying conditioning solutions of pH values from 8 to 6 for 115 s prior to stimulation by a pH drop to 5 for 5 s. Ma-3 was only applied in the conditioning solution for activation and steady-state desensitisation curves in the presence of peptide. Control pH-dependence curves were determined in the absence of any Ma-3. When assessing the effect of Ma-3 on the rASIC1a: ASIC1b chimeras (C92 and C166; and for the comparative wild-type data), the conditioning pH was 7.45 and stimulating pH 5 (Fig. 3b). Specific details of the conditioning and stimulating pH are noted in each figure legend.
(§3) Data were analysed using pCLAMP-Clampfit software (Version 11, Molecular Devices, CA, USA) and GraphPad Prism 9.5 and 10.2.2 (GraphPad Software, San Diego, CA, USA). To obtain the Hill coefficient (nH) and half-maximal response (EC50, IC50, or pH50) the Hill equation was fitted to normalised concentration-response curves by using a non-linear fit to the data of a four-parameter logistic equation (“sigmoidal dose-response” in GraphPad Prism 9.5). […]

[1] = target: T2, rASIC1a S83T/Q84E/R175C/E177G (SQRE) (Rattus norvegicus, UniProt P55926, E177G/Q84E/R175C/S83T); experiment: TEVC oocytes, rASIC1a quadruple mutant SQRE; type: cell-based; details: for remaining activity at 0.3 µM: 300 nM peptide, conditioning pH 7.45, stimulating pH 6, read-out: I/Icontrol
T2 construct: expressed in transfected cells; host or cells: Xenopus laevis oocytes (cRNA injection)
T2 sequence (P55926 1-526 S83T/Q84E/R175C/E177G): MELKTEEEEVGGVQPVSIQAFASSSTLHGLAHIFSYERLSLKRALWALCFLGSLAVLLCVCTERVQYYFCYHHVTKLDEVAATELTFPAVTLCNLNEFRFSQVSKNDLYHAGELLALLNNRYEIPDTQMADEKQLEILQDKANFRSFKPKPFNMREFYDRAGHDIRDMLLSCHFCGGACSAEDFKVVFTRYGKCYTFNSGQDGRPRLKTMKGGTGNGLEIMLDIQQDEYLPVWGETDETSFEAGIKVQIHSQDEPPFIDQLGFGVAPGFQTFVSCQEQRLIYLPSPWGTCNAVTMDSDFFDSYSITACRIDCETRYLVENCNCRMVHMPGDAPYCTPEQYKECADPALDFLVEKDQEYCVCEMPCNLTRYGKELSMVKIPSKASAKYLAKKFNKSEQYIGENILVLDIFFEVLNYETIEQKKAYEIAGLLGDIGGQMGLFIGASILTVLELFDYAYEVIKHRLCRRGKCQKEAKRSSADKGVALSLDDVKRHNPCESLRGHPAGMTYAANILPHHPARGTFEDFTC
Protocol: as §1, §2, §3

Row | Substance | remaining activity at 1 µM (hASIC1b; pH 5 evoked currents) [%] | remaining activity at 1 µM (hASIC1b; pH 6 evoked currents) [%] | remaining activity at 0.3 µM ([1]; n = 5–8) [%] | pH50 of activation in presence of Ma-3 (hASIC1b; 300 nM Ma-3, conditioning pH 7.45, Hill fit, n = 5–6) | difference in potency between pH 5 and pH 6 stimulus conditions (hASIC1b; potentiation at pH 6 vs inhibition at pH 5, conditioning pH 7.45) | shift of the activation curve towards acidic values ([1]; 100 nM Ma-3, conditioning pH 8) [pH units] | slope of activation curve in presence of Ma-3 ([1]; 100 nM Ma-3, conditioning pH 8, mean ± SEM) | change of pH50 of the SSD curve ([1]; 100 nM Ma-3, stimulating pH 5) | slope of SSD curve in presence of Ma-3 ([1]; 100 nM Ma-3, stimulating pH 5, mean ± SEM) | pH50 of activation in presence of Ma-3 ([1]; 100 nM Ma-3 in conditioning solution, conditioning pH 8, Hill fit, mean ± SEM, n = 5–8) | pH50 of steady-state desensitisation (SSD) in presence of Ma-3 ([1]; 100 nM Ma-3 in conditioning solution, stimulating pH 5, Hill fit, mean ± SEM, n = 5–8)
1 | H-SLKCYQHGAVVTCHRDMKFCYHNIGMPFRNLKLILQGCSSSCSETENNKCCSTDRCNK (disulfide 4-20, 13-38, 42-50, 51-56 (inferred)) [K8A] | 75 | 165 | 65 | – | – | – | – | – | – | – | –
2 | H-SLKCYQHGKVVTCHRDAKFCYHNIGMPFRNLKLILQGCSSSCSETENNKCCSTDRCNK (disulfide 4-20, 13-38, 42-50, 51-56 (inferred)) [M16A] | 80 | 188 | 56 | – | – | – | – | – | – | – | –
3 | H-SLKCYQHGKVVTCHRDMKFCYHNIGMPFRNLKLILQGCSSSCSETENNKCCSTDRCNK (disulfide 4-20, 13-38, 42-50, 51-56 (inferred)) [Ma-3, mambalgin-3] | 69 | 161 | 48 | 6.20 | ~ 10 fold | 0.11 | 2.68 ± 0.34 | remained unchanged | 5.47 ± 0.95 | 6.03 ± 0.02 | 7.12 ± 0.01
